Measurements: publication PMC12562324, “Surfactin Structural Variants Differentially Modulate Plant Immune Responses” (Biomolecules, 2025)

Columns and labels:
[1] = tested on: Arabidopsis thaliana Col-0 root protoplasts; test: Calcium influx ([Ca2+]cyt) in root protoplasts, Fluo-4 AM probe; format: cell-based; conditions: 10 µM, Fluo-4 normalized fluorescence (F/F0), within first 30 min; n = 6; Figure 4A,B
Description: Two-week-old Arabidopsis thaliana seedling roots (from 27 mg seeds) were collected and were cut into 1–2 mm segments and incubated in a protoplasting solution (20 mM MES pH 5.7, 0.4 M mannitol, 20 mM KCl, 10 mM CaCl2, 0.1% (w/v) BSA, 1.5% (w/v) cellulase R10 (Duchefa Biochemie, Haarlem, The Netherlands), 0.4% (w/v) macerozyme R10 (Duchefa Chimie)) for 3 h at room temperature and in the dark. After incubation, 1 mL of solution A (154 mM NaCl, 5 mM KCl, 125 mM CaCl2, 4 mM MES, pH = 5.7) was added inside. The suspension was agitated gently and filtered by a 70 µm pore filter to remove extra root debris. Filtered suspension was centrifuged at 850 g for 6 min at room temperature, and the pelleted protoplasts were rinsed three times with solution B (4 mM MES pH 5.7, 154 mM NaCl, 125 mM CaCl2, 5 mM KCl) before being resuspended in solution C (2 mM MES pH 5.7, 0.5 M mannitol, 20 mM KCl, 2 mM CaCl2) at a working concentration of 1–2 × 10^5 cells per mL. Calcium measurements were also performed on protoplasts with the Fluo-4 AM probe. Protoplasts isolated from roots of Arabidopsis thaliana Col-0 were incubated for 1 h with 5 µM of Fluo-4 AM (Thermo Fisher Scientific, Hampton, VA, USA) (from a 5 mM stock solution in DMSO). The suspension was then centrifuged at 750 g, and the supernatant was discarded to eliminate the remaining free fluo-4 AM. The protoplasts were resuspended in fresh solution C and were incubated for 1 h. Microplates (96 Flat Black-Greiner Bio-One^TM CellStar^TM, Fischer Scientific) were loaded with 150 µL of protoplast solution per well. After the addition of 50 µL of 4-times-concentrated treatment, the fluorescence was recorded every 15 s using a Spark® microplate reader (Tecan, Männedorf, Switzerland) with an excitation filter at 485 ± 20 nm and an emission filter at 535 ± 25 nm. The values obtained were then converted as normalized fluorescence increase (F/F0) by dividing the fluorescence measured at each time point (F) by the fluorescence measured at the first time point (F0).

[2] = tested on: Arabidopsis thaliana roots; test: Intracellular NO (RNS burst) in roots, DAF-DA probe; format: cell-based; conditions: for NO accumulation in roots vs mock: 10 µM, DAF-DA fluorescence fold change at 20 min vs mock (DMSO 0.1%), n = 12 from three independent experiments, Figure 3A,B
Description: For the detection of intracellular NO, roots were processed as described above and 200 µL sterile water was replaced by 200 µL 5 μM DAF-DA in a buffered solution (10 mM Tris/HCl, pH = 7.4). Roots were incubated at room temperature for 1 h in the absence of light and then washed 3 times with Tris/HCl (10 mM, pH = 7.4). The fluorescence emitted by DAF-DA was detected by excitation at 495 nm and emission at 515 nm. Experiments where NO was measured after pretreatment with the calcium channel blocker or calcium chelator included an additional step where LaCl3 (10 mM; Merck Chemicals SA, Hoeilaart, Belgium) or EGTA (1 mM; Merck Chemicals SA, Hoeilaart, Belgium) was added three minutes before treatments. Data were processed as described above for ROS. For NO measurements in protoplasts, the suspension was incubated in the same conditions before being distributed (50 µL) in microplate wells and treated with the CLPs at a 10 µM final concentration or with 0.1% DMSO as a mock.

[3] = UPLC-MS retention on C18 as relative hydrophobicity; format: physicochemical; conditions: chromatographic, C18 (BEH C18 1.7 µm), water/ACN with 0.1% TFA gradient, 40 °C; order of homologue groups Srf, Liche, Pumi; Figure 1B,D,F
Description: The purified material was freeze-dried (lyophilisator Martin Christ alpha 3–4 LSC BASIC) before storage. All the CLPs used in this research were freshly prepared from powder before each experiment. The concentration of Liche or Pumi was referred to the concentration of Srf and determined by MassHunter Workstation software (version B.09.00) after data collection from an Agilent Technologies 1290 Infinity (Santa Clara, CA, USA), with a C18 reversed-phase column (waters acquity premier BEH C18 1.7 µm 2.1 mm × 50 mm) being used at a flow rate of 0.6 mL/min and a temperature of 40 °C. […] That was coupled with a mass detector (Agilent Technologies 6530 Accurate-Mass Q-TOF LC/MS, Santa Clara, CA, USA) in positive mode, with the parameters set up as follows: drying gas temperature of 300 °C, drying gas of 8 L/min, nebulizer of 35 psi, sheath gas temperature of 350 °C, flow rate of sheath gas of 11 L/min, capillary voltage of 3.5 kV, nozzle voltage (expt) of 1 kV, fragmentor voltage of 175 V, skimmer voltage of 65 V, and octopole radiofrequency of 750 V. Accurate mass spectra were recorded in the m/z range of 100–1700. […]

root tissues = conditions: previous results; cited from earlier work
Description: Early immune responses associated with PTI include the rapid accumulation of extracellular ROS in the apoplast, generated mainly by the plasma membrane-located NADPH oxidase RBOHD or by cell wall peroxidases. Cytoplasmic hydrogen peroxide ([ROS]intra) production also emerges as an early defense response and could originate from various organelles, as reported for ETI, or in response to abiotic stresses or other small microbial compounds [9, 36, 37].

With lichenysin the “[Ca2+]cyt increase in root protoplasts” value [1] was “fast increase in [Ca^2+]cyt”.

With pumilacidin the “NO accumulation in roots vs mock” value [2] was “no impact”, the “[Ca2+]cyt increase in root protoplasts” value [1] was “not significant” and the “UPLC-MS elution order (relative hydrophobicity)” value [3] was “then Pumi”.

With surfactin [Srf] the “NO accumulation in roots vs mock” value [2] was “fast accumulation of NO”, the “Srf-induced RNS (NO burst) in roots after pretreatment with Ca2+ chelator EGTA” value ([2]; EGTA 1 mM added three minutes before treatment, over 50 min, n = 8 from two independent experiments, Figure 4D) was “abolished” and the “Srf-induced RNS (NO burst) in roots after pretreatment with Ca2+ channel blocker LaCl3” value ([2]; LaCl3 10 mM added three minutes before treatment, over 50 min, n = 8 from two independent experiments, Figure 4C) was “abolished”. For the same substance, the “[Ca2+]cyt increase in root protoplasts” value [1] was “fast increase in [Ca^2+]cyt”, the “UPLC-MS elution order (relative hydrophobicity)” value [3] was “eluted first” and the “Burst in extracellular ROS in root tissues” value (root tissues) was “not a burst in extracellular ROS”. For the same substance, the “[ROS]intra production in root tissues” value (root tissues) was “triggers [ROS]intra production”.
